EP4574147A1, “COMPOSITION FOR PREVENTING, AMELIORATING, OR TREATING CANCER COMPRISING STEPPOGENIN AS ACTIVE INGREDIENT” (Kyungpook National University Industry-Academic Cooperation …, priority 2022, dated 2024)

Assays:
[1] = test system: Lewis lung carcinoma (LLC)-allografted tumor models; assay: Lewis lung carcinoma allograft tumor model with immunohistochemical analysis; format: in vivo, C57BL/6J mice; conditions: for average body weights between the groups during the administration period: intraperitoneal (FIG. 6b)
Protocol: Six-week-old adult male C57BL/6J mice (SLC, Japan) were used and housed in a specific pathogen-free facility with an individual ventilation system at Kyungpook National University.
To manufacture Lewis lung carcinoma (LLC)-allografted tumor models, LLC cell suspensions (5 × 10^5 cells in 200 µL of serum-free culture medium) were subcutaneously transplanted into the dorsal flank area of 6-week-old male C57BL/6J mice. After inoculating the LLC cells, the mice were administered 17-AAG (25 mg/kg) or steppogenin (2 mg/kg) via intraperitoneal injection at various time points. Next, tumor volumes were measured according to the following formula: V = 0.5 × A × B^2, where A and B represent the longest and shortest dimensions, respectively. Finally, the mice were anesthetized and tissues were collected for further analysis.
For immunohistochemical analysis, collected tumor or tissue samples were fixed in 4% paraformaldehyde and embedded in tissue-freezing medium (Leica, Wetzlar, Germany). Frozen blocks were cut into 10 µm sample sections, blocked with 3% BSA in PBST (0.3% Triton X-100 in PBS), and incubated overnight at 4 °C with appropriate primary antibodies. Primary antibodies were as follows: anti-CD34 (Boster Bio, CA, USA), anti-DLL4 (R&D Systems, MN, USA), anti-pimonidazole (Hypoxyprobe-1, HPI, MA, USA), anti-CD3 (Abcam), anti-CD4 (Invitrogen), and anti-CD8 (Invitrogen). After several washes, the samples were incubated with recommended fluorophore-tagged secondary antibodies for 1 hour at room temperature. Next, cell nuclei were stained using Antifade Mounting Medium containing DAPI (Vector Laboratories, Burlingame, CA). Immunofluorescence images were acquired using a Zeiss confocal microscope (Carl Zeiss, Germany). Next, pimonidazole hydrochloride (60 mg/kg; Hypoxyprobe-1, HPI) was injected intravenously through the tail vein of mice and anesthetized 90 minutes later. Finally, tumor tissues were collected for further analysis.
To determine whether steppogenin induces vascular normalization, T-cell infiltration in tumor tissues was examined.

[2] = test system: HIF-1α target genes VEGF, GLUT1, CXCR4, and CA9; assay: Real-time qRT-PCR of HIF-1α target gene mRNA; format: cell-based; conditions: hypoxia (FIG. 4c)
Protocol: Total RNA was isolated using TRIzol Reagent (Invitrogen). The isolated RNA was used to synthesize cDNA using ReverTra Ace qPCR RT Master Mix (TOYOBO, Osaka, Japan) according to the manufacturer's protocol. The synthesized cDNA was mixed with gene-specific primers. Amplification real-time polymerase chain reaction (PCR) was performed using SYBR Green PCR Master Mix (Applied Biosystems, CA, USA). The heat cycle proceeded as follows: 50 °C for 2 min, 95 °C for 10 min, 40 cycles of denaturation at 95 °C for 15 s, and annealing at 60 °C for 1 min. Mean cycle threshold values were used to calculate mRNA expression with normalization to β-actin as an internal control.

DLL4 [3] = assay: Western blot analysis of VEGF-induced DLL4 protein level in endothelial cells; format: cell-based, human
Protocol: (§1) Proteins were extracted from cultured cells using RIPA lysis buffer (Thermo Scientific, Waltham, MA, USA). The protein extracts were separated using SDS-PAGE and transferred to nitrocellulose membranes (Whatman, Maidstone, England). The membranes were blocked with 5% skim milk in Tris-buffered saline containing 0.1% Tween-20 for 1 hour at room temperature. After blocking, the membranes were incubated with specific primary antibodies overnight at 4°C, and then incubated with secondary antibodies for 1 hour at room temperature. Proteins were detected using the Enhanced Chemiluminescence Kit (Bio-Rad, Hercules, CA, USA) according to the manufacturer's instructions. Primary antibodies against HIF-1α (BD Biosciences, San Diego, CA, USA), VEGF (Santa Cruz Biotechnology, Santa Cruz, CA, USA), CXCR4 (Abcam, Cambridge, UK), CA9 (Abcam), DLL4 (Santa Cruz Biotechnology), NOTCH1 (Thermo Scientific), and β-actin (Santa Cruz Biotechnology) were used.

[4] = test system: HIF-1α target genes VEGF, GLUT1, CXCR4, and CA9; assay: Western blot analysis of HIF-1α target gene protein levels; format: cell-based; conditions: hypoxia, compared to vehicle control group (FIG. 4d)
Protocol: as §1

HIF-1α [5] = assay: Western blot analysis of HIF-1α protein expression under hypoxia; format: cell-based, human; conditions: for HIF-1α protein levels: dose-dependent, maximum dose 3 µM (FIG. 4a)
Protocol: as §1
To determine the effect of the selected natural compounds on HIF-1α protein expression, Western blotting was performed on HEK293T cells. […] Accordingly, the effect of five compounds with HIF-1α inhibitory activity on DLL4 reporter activity in ECs was also investigated. […] Therefore, Compound #57 was selected as a potential inhibitor of HIF-1α and DLL4.

HEK293T cells [6] = assay: Lactate dehydrogenase cytotoxicity assay; format: cell-based, human; conditions: LDH release, hypoxia 24 h, compared to vehicle treatment (FIG. 3b)
Protocol: HEK293T cells were seeded at 2 × 10^3 cells/well in 96-well plates and cultured at 37 °C for 24 h. Next, the cells were treated with various concentrations of steppogenin for 24 h under hypoxia conditions. Lactate dehydrogenase (LDH) release values were evaluated using the Cytotoxicity LDH Assay Kit-WST (DOJINDO) according to the manufacturer's instructions. Cytotoxicity was measured using a microplate reader (Infinite M200 Pro; TECAN) at 490 nm.

EA.hy926 cells = assay: Wound-healing migration assay; format: cell-based, human
Protocol: EA.hy926 cells were seeded at a density of 4 × 10^4 cells/well in 12-well plates and incubated for 24 hours. The cells were starved overnight in a serum-free medium and treated with mitomycin C (0.5 µg/mL) for 1 h. When confluent, a wound was made with a pipette tip and the cells were washed with a serum-free medium to remove cell debris. Next, the plates were treated with a conditioned medium collected from HEK293T cell cultures under hypoxia conditions treated with steppogenin. Wound closure was monitored and photographs were taken at 0 h and 8 h. Cell migration was measured by calculating the wound area between 0 h and 8 h.

HIF-1α [7] = assay: Immunofluorescence staining of intranuclear HIF-1α; format: cell-based, human; conditions: A549 cells, hypoxia 4 h, immunofluorescence (FIG. 4b)
Protocol: Cells were seeded at a density of 2 × 10^4 - 3 × 10^4 cells/well on coverslips of 4-well plates and cultured for 24 h. For HIF-1α staining, A549 cells were treated with various compounds and incubated under normoxia or hypoxia conditions for 4 h. […] Next, the cells were fixed with 4% paraformaldehyde and permeabilized with 1% Triton X-100. The fixed cells were blocked with phosphate-buffered saline (PBS) containing 3% bovine serum albumin (BSA) and then incubated with primary antibodies overnight. After incubation, the cells were incubated with secondary antibodies for 1 hour and their nuclei were stained using DAPI. The stained cells were visualized using a confocal microscope (Leica TCS SP5 II Dichroic/CS, Leica, Germany).

HEK293T cells [8] = assay: Cell counting kit-8 assay (cell viability under hypoxic conditions); format: cell-based, human; conditions: hypoxia, compared to vehicle treatment (FIG. 3a)
Protocol: HEK293T cells were seeded at a density of 5 × 10^3 cells/well in 96-well plates and cultured at 37°C for 24 h. After 24 hours, the natural compounds were diluted in the medium according to the concentration and replaced. Cell viability was determined after exposure to hypoxic conditions for 24 h using the Cell Counting Kit-8 (DOJINDO, Rockville, MD, USA) according to the manufacturer's instructions, and measured using a microplate reader (Infinite M200 Pro; TECAN, Mannedorf, Switzerland) at 450 nm.
To test the inhibitory activity of 70 natural compounds on HIF-1 and DLL4 activity, their cytotoxic effects on immortalized normal cells were first tested under hypoxia conditions. In particular, under these conditions, HEK293T cells were treated with compounds at various concentrations (0.1 to 10 µM).

DLL4 [9] = assay: Immunofluorescence staining of DLL4 in endothelial cells; format: cell-based, human; conditions: hypoxia, immunofluorescence (FIG. 5b)
Protocol: (§2) Cells were seeded at a density of 2 × 10^4 - 3 × 10^4 cells/well on coverslips of 4-well plates and cultured for 24 h. For HIF-1α staining, A549 cells were treated with various compounds and incubated under normoxia or hypoxia conditions for 4 h. For Ki-67 and DLL4 staining, EA.hy926 cells were treated with the same compounds and maintained under VEGF (20 ng/mL) treatment. Next, the cells were fixed with 4% paraformaldehyde and permeabilized with 1% Triton X-100. The fixed cells were blocked with phosphate-buffered saline (PBS) containing 3% bovine serum albumin (BSA) and then incubated with primary antibodies overnight. After incubation, the cells were incubated with secondary antibodies for 1 hour and their nuclei were stained using DAPI. The stained cells were visualized using a confocal microscope (Leica TCS SP5 II Dichroic/CS, Leica, Germany).

EA.hy 926 cell = assay: Spheroid sprouting assay; format: cell-based, human; conditions: VEGF treatment, 2 days (FIG. 5d)
Protocol: EA.hy 926 cell suspension (5×10^3 cells) was distributed on the lid of a 100 mm dish using a hanging-drop method and maintained for 24 hours. The next day, spheroids were harvested and mixed with Methocel stock solution containing 20% FBS. Next, spheroids containing Methocel solution were seeded in 24-well plates. After incubation at 37°C for 30 minutes, VEGF or steppogenin was added to the polymerized Methocel solution and incubated for 2 days.

DLL4 [10] = assay: DLL4-luciferase dual-luciferase assay in EA.hy926 cells with VEGF; format: cell-based, human
Protocol: (§3) To perform the HRE-luciferase assay, HEK293T cells were seeded in a 96-well plate at a density of 5×10^3 cells/well and cultured at 37°C. Next, cells were co-transfected with pGL3-HRE-luciferase plasmid and pRL-SV40 Renilla plasmid containing 5 copies of HRE of human VEGF gene using a vivamagic transfection reagent (Vivagen, Seongnam, Korea) (Kwon et al., 2015). After 24 h, cells were pretreated with various concentrations of natural compounds for 1 h and then incubated under hypoxia conditions for 24 h. To perform the DLL4-luciferase assay, EA.hy926 cells were seeded in 24-well plates at a density of 4 × 10^4 cells/well and cultured at 37 °C for 24 h. Cells were co-transfected with pGL3-DLL4 luciferase and pRL-SV40 Renilla plasmids using Lipofectamine 2000 (Invitrogen) and cultured at 37°C for 24 h. Next, the cells were incubated with various concentrations of natural compounds for 1 h and then incubated for 24 h in the presence or absence of VEGF (10 ng/mL). The luminescence of HRE- and DLL4-promoter activities was detected using a microplate reader and the Dual-Luciferase Assay Kit (Promega, Madison, WI, USA) according to the manufacturer's instructions. The luciferase activity of the natural compounds was normalized to Renilla luciferase activity.

Notch1, and NICD = assay: Western blot analysis of VEGF-induced Notch1 and NICD protein levels; format: cell-based, human; conditions: HUVECs (FIG. 5a)
Protocol: as §1

HIF-1α [11] = assay: HRE-luciferase dual-luciferase assay (HIF-1α promoter reporter activity); format: cell-based, human
Protocol: as §3
To select potential HIF-1α inhibitors, the effects of 70 natural compounds were tested on HIF-1α promoter reporter activity using a dual-luciferase assay.

Ki-67 = assay: Immunofluorescence staining of Ki-67 in endothelial cells; format: cell-based, human; conditions: hypoxia
Protocol: as §2

[12] = 17-AAG 25 mg/kg, steppogenin 2 mg/kg
[13] = ECs, VEGF treatment, screening (FIG. 2c)
[14] = immunohistochemical staining, compared to control group, 17-AAG 25 mg/kg, steppogenin 2 mg/kg (FIG. 6c)
[15] = tumor tissues, steppogenin 2 mg/kg (FIG. 6e)

C=CCNC1=C2C[C@@H](C)C[C@H](OC)[C@H](O)[C@@H](C)/C=C(\C)[C@H](OC(N)=O)[C@@H](OC)/C=C\C=C(/C)C(=O)NC(=CC1=O)C2=O [Compound 17-AAG, tanespimycin, reference compound]
average body weights between the groups during the administration period [1, 12]: no significant difference

O=C1C[C@@H](c2ccc(O)cc2O)Oc2cc(O)cc(O)c21 [steppogenin, (2S)-2-(2,4-dihydroxyphenyl)-5,7-dihydroxy-2,3-dihydrochromen-4-one]
mRNA expression of CA9 [2]: inhibited
mRNA expression of CXCR4 [2]: inhibited
mRNA expression of GLUT1 [2]: inhibited
mRNA expression of VEGF [2]: inhibited
DLL4 protein level induced by VEGF (DLL4 [3]; [13]): significantly suppressed
VEGF-induced DLL4 protein levels (DLL4 [3]; HUVECs (FIG. 5a)): dose-dependently reduced
protein levels of CA9 [4]: suppressed
protein levels of CXCR4 [4]: suppressed
protein levels of VEGF [4]: suppressed
HIF-1α protein levels (HIF-1α [5]; A549, hypoxia): significantly inhibited
HIF-1α protein levels (HIF-1α [5]; ARPE19, hypoxia): significantly inhibited
HIF-1α protein expression (HIF-1α [5]; HEK293T cells, hypoxia, screening of selected compounds (FIG. 2b)): inhibited
HIF-1α protein levels (HIF-1α [5]; HEK293T, hypoxia): significantly inhibited
cytotoxicity (HEK293T cells [6]): not altered
wound closure (EA.hy926 cells; HUVECs, hypoxia, 0 h to 8 h (FIG. 5c)): significantly reduced
number of migrating cells (EA.hy926 cells; hypoxia (FIG. 5c)): significantly reduced
average body weights between the groups during the administration period [1, 12]: no significant difference
tumor growth ([1]; 17-AAG 25 mg/kg, steppogenin 2 mg/kg, intraperitoneal, days 7, 9, 11, 13, 15 (FIG. 6a)): significantly inhibited
HIF-1α expression level in tumors [1, 14]: significantly reduced
hypoxic region in tumors [1, 14]: significantly reduced
microvessel density analyzed using CD34 antibody ([1]; steppogenin 2 mg/kg, compared to control tissue (FIG. 6d)): significantly reduced
infiltration of CD3+ T cells [1, 15]: significantly increased
ratio of CD8+ to CD4+ T cells in tumors [1, 15]: decreased
intranuclear expression of HIF-1α (HIF-1α [7]): decreased
dose-dependent cell viability (HEK293T cells [8]): not altered
DLL4 expression in ECs (DLL4 [9]): dramatically suppressed
germination ability (number of germinations) in 3D EC spheroid cultures (EA.hy 926 cell): significantly inhibited
DLL4-luciferase reporter activity (DLL4 [10]; 0.3 to 10.0 µM, VEGF-treated (FIG. 3e)): significantly reduced
DLL4 luciferase activity induced by VEGF (DLL4 [10]; [13]): significantly suppressed
IC50 (DLL4 [10]; Homo sapiens, EA.hy 926, EA.hy926 cells (FIG. 3f)): 8.46 ± 1.08 µM
VEGF-induced NICD protein levels (Notch1, and NICD): dose-dependently reduced
VEGF-induced Notch1 protein levels (Notch1, and NICD): dose-dependently reduced
HRE-luciferase reporter activity (HIF-1α [11]; 0.1 to 10 µM, dose-dependent, hypoxia (FIG. 3c)): significantly inhibited
HRE-luciferase activity compared to the hypoxic vehicle (DMSO) control group (HIF-1α [11]; HEK293T cells, hypoxia 24 h, screening (FIG. 2a)): < 70%
IC50 (HIF-1α [11]; Homo sapiens, 72 h, HRE-luciferase reporter, hypoxia (FIG. 3d), read-out: half-maximal inhibitory concentration (IC50) for HIF-1α activity): 0.56 ± 0.043 µM
level of Ki-67, a cell proliferation marker (Ki-67): decreased
